Consider one compound from paper PMC10797614, “MYC-Targeting Inhibitors Generated from a Stereodiversified Bicyclic Peptide Library” (Journal of the American Chemical Society, 2024).

The test system of data set [1] is MYC transcription activity (HALLAMRK MYC TARGETS V1 gene set). Kind of data set: RNA-seq, differential expression (DESeq) and GSEA in U87 cells. The conditions noted are these: treated vs vehicle, p-value < 0.001, FDR 0.005. In kind it is cell-based, human. An excerpt:
To test whether NT-B2R directly affected MYC activity, we performed RNA-seq on the U87 cells and evaluated the differentially expressed genes using DESeq. […] A caveat here is that a global shift of transcription activities will not be observable by this analysis, due to the embedded normalization procedure.[38] Nevertheless, gene set enrichment analysis (GSEA) results highlighted that MYC target gene sets were enriched with high statistical significance and low false discovery probabilities, supporting that MYC was NT-B2R’s main target (Figure 4G).
U87 cells were seeded in six 100x20 mm cell culture dishes at 1000 k/dish and incubated for 24h in full DMEM medium containing 10% FBS and 1% PS. […]
Total RNA of the harvested cells was extracted and purified using the RNeasy Micro Kit (QIAGEN). Following the extraction, RNA integrity and quantitation were assessed using the RNA Nano 6000 Assay Kit on the Bioanalyzer 2100 system (Agilent Technologies). […] The obtained six library samples were pooled together and sequenced on a NovaSeq 6000 (Illumina) to reach approximately 30M 150bp pair-end reads per sample.
The obtained sequencing data was preprocessed using TrimGalore, aligned using STAR, and counted using HTSeq. […]

In data set [2] the test system is U87 cells. Description: Cell viability test (resazurin), U87. Format: cell-based, human. As to conditions: peptide-loaded DOTAP/DOPE liposomes vs empty liposomes, 48 hours, resazurin fluorescence. The protocol: (§1) Liposome loading capacity quantification
(§2) 200 μL of the liposome solution (4 mg/mL) was dried under vacuum and extracted with 50 μL of DMSO. The obtained solution was analyzed on a reverse-phase HPLC and the corresponding peptide peak was identified by mass spectrometry. The peptide concentration was then determined by comparing the peak area to that of a standard solution. The loading capacities were calculated accordingly.
Cells were seeded in a 96-well plate at 4 k/well and incubated overnight. Afterward, the cells were washed with complete media and treated with varying concentrations of peptide-loaded liposome or empty liposome. The final media volume was 200 μL in each well. The cells were treated for 48 hours and then washed with fresh media to remove residue peptides or liposomes. For a single well, Resazurin (10 μg/mL in PBS) mixed with 200 μL of fresh cell media was added, and the plate was incubated at 37 °C for 3 hours. The 96-well plate was shaken for 15 min on an orbital mixer in dark, and the fluorescence (540 nm excitation, 590 nm emission) intensities were read by a […]
(§3) U87 cells were detached by trypsin and resuspended in 5 mL of PBS(1x). […] The protein concentrations were determined by BCA assay.
(§4) To prepare the sample for the cellular thermal shift assay, the quantified cell lysate was adjusted to a final concentration of 1.481 mg/mL with lysis buffer. […]

Data set [3] concerns the target T1, MYC (Homo sapiens, UniProt P01106).
T1 construct: made in house; host or cells: E. coli BL21(DE3)
Kind of data set: Cellular thermal shift assay (CETSA) with U87 cell lysate. Format: binding. The conditions noted are these: U87 cell lysate 1.481 mg/mL, 195 μL lysate + 19.5 μL peptide (1 mM in PBS); 50 to 65 °C for 3 min; Western blot; versus control. The protocol: To validate that NT-B2R could bind to MYC in complex biological environments, we performed cellular thermal shift assays using U87 cell lysates[34] (Figure 4A). U87 is a human glioblastoma cell line with known dependence on MYC activities.[35]−[37]
as §1, §2
Cells were seeded in a 96-well plate at 4 k/well and incubated overnight. Afterward, the cells were washed with complete media and treated with varying concentrations of peptide-loaded liposome or empty liposome. The final media volume was 200 μL in each well. […] The 96-well plate was shaken for 15 min on an orbital mixer in dark, and the fluorescence (540 nm excitation, 590 nm emission) intensities were read by a […]
as §3, §4

For data set [4] the following is noted: free peptide; liposomes therefore used as delivery vehicles.
Data set [5] deals with MYC and phosphor-MYC (p-MYC, T58). Description: Western blot of MYC and phosphor-MYC levels in treated U87 cells. Format: cell-based, human. As to conditions: liposome-delivered peptide. From the text:
We then evaluated the biological effects of NT-B2R in cells.
(In general: A western blot detects proteins with antibodies after separation by electrophoresis.)

*1 amine or outer side, *2 acyl side, *3 side chain or, on linkers, in order; H or OH if unused. Where a SMILES comes first, the peptide text is derived from it. Bridges are numbered along the chain shown (N, C = ends). X1 = O=C([C@@H]1C[C@H](C=CCO[*:3])C[C@@H]1C=CCO[*:1])[*:2]

T1 sequence (P01106 16-454): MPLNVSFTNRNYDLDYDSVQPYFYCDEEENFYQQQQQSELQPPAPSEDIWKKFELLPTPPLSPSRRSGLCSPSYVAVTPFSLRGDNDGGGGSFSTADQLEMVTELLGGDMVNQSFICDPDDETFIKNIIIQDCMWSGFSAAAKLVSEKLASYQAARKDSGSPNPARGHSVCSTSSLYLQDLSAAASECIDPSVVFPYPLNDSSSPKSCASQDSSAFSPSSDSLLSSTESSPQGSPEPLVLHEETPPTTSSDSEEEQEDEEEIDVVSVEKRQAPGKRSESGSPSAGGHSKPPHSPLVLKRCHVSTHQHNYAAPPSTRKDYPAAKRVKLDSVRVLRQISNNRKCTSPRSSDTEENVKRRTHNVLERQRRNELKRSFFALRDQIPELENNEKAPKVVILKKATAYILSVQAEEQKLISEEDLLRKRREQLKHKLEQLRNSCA

As for `CC(C)C[C@@H]1NC(=O)[C@H](CCCNC(=N)N)NC(=O)[C@@H]2CCCCNC(=O)[C@@H]3C[C@H](C=CCOC(=O)CC[C@@H](C(N)=O)NC1=O)C[C@@H]3C=CCOC(=O)CC[C@H](N)C(=O)N[C@@H](Cc1c[nH]c3ccccc13)C(=O)N1CCC[C@H]1C(=O)N[C@@H](Cc1c[nH]cn1)C(=O)N[C@@H](CCCNC(=N)N)C(=O)N2` [NT-B2R] (H-EWPHRKRLE-NH2; linker 1-6-9 via X1; N-terminus and C-terminus assumed), the “GSEA normalized enrichment score (NES), HALLAMRK MYC TARGETS V1” value in data set [1] was −5.955. Besides, the “metabolic activity and proliferation (viability), U87” value in data set [2] was “decreased metabolic activity and proliferation”. For the same compound, the “increase of MYC melting temperature, CETSA” value in data set [3] is on record as around 2 °. In data set [4], the “cell permeability (in words)” value is recorded as “not cell-permeable”. Also, the “expression and phosphorylation levels of MYC (Western blot)” value in data set [5] is listed as “did not alter”.
